The values below come from patent US20240132461A1, “FLAVONE DEAZA SPERMIDINE ANALOGUES AND THEIR USE TREATING CANCER” (FLORATEK PHARMA S.A., priority 2021, published 2024).

In series [1] the target is T1, SNARK (Homo sapiens, UniProt Q9H093).
T1 construct: purchased Eurofins (KINOMEscan assay service); host or cells: E. coli BL21-derived (T7 phage) or HEK-293
Nature of the series: KINOMEscan competition binding assay, SNARK. An excerpt: (§1) The Hill Slope was set to −1.

The test system of series [2] is U-87MG. Nature of the series: Cell viability assay, brain carcinoma cell line U-87MG. As to conditions: Homo sapiens; U-87MG brain carcinoma cell line, 72 h, absolute IC50. In kind it is cell-based. As to the method:
(§2) Antitumor activity of the compounds and doxorubicin as a positive control was assessed by using the CellTiter-Blue Cell Viability Assay (Promega, #G8082) or CellTiter-Glow® Luminescent Cell Viability assay (Promega # G7572) according to the manufacturer's instructions. The compounds were tested at 5 or 6 concentrations in half-log increments (highest concentration 30 μM-100 μM) in duplicate or triplicate well conditions.
Tumor cells were grown at 37° C. in a humidified atmosphere with 5% CO2 in RPMI 1640 or DMEM medium, supplemented with 10% (v/v) fetal calf serum and 50 μg/ml gentamicin for up to 20 passages, and were passaged once or twice weekly. Cells were harvested using TrypLE or PBS buffer containing 1 mM EDTA, and the percentage of viable cells is determined using a CASY Model TT cell counter (OMNI Life Science). Cells were harvested from exponential phase cultures, counted and plated in 96 well flat-bottom microtiter plates at a cell density depending on the cell line's growth rate (4,000-20,000 cells/well depending on the cell line's growth rate, up to 60,000 for hematological cancer cell lines) in RPMI 1640 or DMEM medium supplemented with 10% (v/v) fetal calf serum and 50 μg/ml gentamicin (140 μl/well). Cultures were incubated at 37° C. and 5% CO2 in a humidified atmosphere. After 24 h, 10 μl of test compounds or control medium are added, and left on the cells for another 72 h. Compounds were serially diluted in DMSO, transferred in cell culture medium, and added to the assay plates. The DMSO concentration was kept constant at <0.3% v/v across the assay plate. Viability of cells was quantified by the CellTiter-Blue® cell viability assay (Promega G8081) or CellTiter-Glow® Luminescent Cell Viability assay (Promega # G7572). Fluorescence (FU) was measured by using the EnSpire® multimode plate reader (Perkin Elmer) (excitation λ=570 nm, emission λ=600 nm) or luminescent detection of ATP in viable cells was used as parameter for proliferation. Luminescence was measured with the microplate luminometer (Promega or Perkin Elmer).
Sigmoidal concentration-response curves were fitted to the data points (test-versus-control, T/C values) obtained for each tumor model using 4 parameter non-linear curve fit (Charles River DRS Datawarehouse Software) or with GraphPad prism 5.02 software. IC50 values are reported as absolute IC50 values, being the concentration of test compound at the intersection of the concentration-response curves with T/C=50%

Series [3] has as its target T2, PIM3 (Homo sapiens, UniProt Q86V86).
T2 construct: purchased Eurofins (KINOMEscan assay service); host or cells: E. coli BL21-derived (T7 phage) or HEK-293
Nature of the series: KINOMEscan competition binding assay, PIM3.
Description: as §1

Series [4] relates to LU-01-0025. Put plainly: PDX cytotoxicity assay, lung carcinoma PDX LU-01-0025. The format is cell-based. How it is done:
(§3) PDX-derived cell cultures were obtained from tumors explanted from mice and isolated by mechanical and enzymatic dissociation. […] Cells were harvested and seeded in 96-wells plates at a density of 1.25 to 5×10^3 cells/well for cytotoxicity assays. Cells were incubated 48 h at 37° C. prior to addition of test molecules and vehicle (DMSO, 0.1%) at desired final concentrations. Cell viability was assessed before drugs' addition (T0) and 5 days after test molecules addition by measuring ATP cell content using CellTiter-Glo® Luminescent Cell Viability Assay (Promega) according to the manufacturer's instructions. Luciferase activity was measured on a luminometer (PerkinElmer® EnVision™). Each concentration of compounds was tested in triplicate.
(§4) Viability was calculated as a percentage of ATP value compared to vehicle treated controls.
(§5) For PDX primary cell cultures, the tumour tissue was washed with PBS containing antibiotic-antimycotic and non-tumour tissue and necrotic tumour tissues were separated. The tumour tissue was transferred to a new dish and cut into 1˜2 mm^3 fragments, resuspended in RPMI-1640 medium and centrifuged at 1,200 rpm for 6 min at room temperature. The pelleted material was resuspended with 15 mL of Tumour Cell Digestion Solution and incubated at 37° C. for 1 hour with agitation. […]

Series [5] concerns SU-DHL-4. Put plainly: Cell viability assay, lymphoma cell line SU-DHL-4. In kind it is cell-based. As to conditions: Homo sapiens; SU-DHL-4 lymphoma cell line. As to the method: as §2
(§6) Tumor cells were grown at 37° C. in a humidified atmosphere with 5% CO2 in RPMI 1640 or DMEM medium, supplemented with 10% (v/v) fetal calf serum and 50 μg/ml gentamicin for up to 20 passages, and were passaged once or twice weekly. Cells were harvested using TrypLE or PBS buffer containing 1 mM EDTA, and the percentage of viable cells is determined using a CASY Model TT cell counter (OMNI Life Science). Cells were harvested from exponential phase cultures, counted and plated in 96 well flat-bottom microtiter plates at a cell density depending on the cell line's growth rate (4,000-20,000 cells/well depending on the cell line's growth rate, up to 60,000 for hematological cancer cell lines) in RPMI 1640 or DMEM medium supplemented with 10% (v/v) fetal calf serum and 50 μg/ml gentamicin (140 μl/well). […] Viability of cells was quantified by the CellTiter-Blue® cell viability assay (Promega G8081) or CellTiter-Glow® Luminescent Cell Viability assay (Promega # G7572). […]

Series [6] has as its system HN-13-0020. Put plainly: PDX cytotoxicity assay, head and neck PDX HN-13-0020. The format is cell-based. As to the method: as §3, §4, §5
The nature of series [7]: In vivo maximum tolerated dose in NOG mice. As to the method:
In order to evaluate the general toxicity of selected SND compounds in an animal model, a maximum tolerated dose (MTD) in NOG mice has been undertaken. Three mice per group were treated daily or every other day over 8 days at various doses between 5 mg/kg and 10 mg/kg. Administration of the compounds was i.p. A stock solution of the compounds (40 mg/ml in DMSO) was prepared and frozen at −20° C. in aliquots for each treatment. […] Body weights were measured before each treatment. Mice were further observed for 1 week after the last treatment.

Series [8] deals with ES-06-0122. Put plainly: PDX cytotoxicity assay, esophagus PDX ES-06-0122. The format is cell-based. As to the method:
as §3, §4, §5

In series [9] the test system is GA-10. Put plainly: Cell viability assay, lymphoma cell line GA-10. The format is cell-based. As to conditions: Homo sapiens; GA-10 lymphoma cell line. As to the method:
as §2, §6

Series [10] concerns leukaemia cell. Nature of the series: Cell viability assay, leukaemia cell lines (summary). As to conditions: summary of Table 6A; read-out: IC50, leukaemia cell growth. The format is cell-based. How it is done:
as §2, §6

The test system of series [11] is U87MG human glioblastoma cells. Nature of the series: In vivo tumour inhibition of xenograft human glioblastoma U87MG. As to conditions: 10 mg/kg/inj i.p. qod.
The test system of series [12] is HBCx-3. Nature of the series: PDX cytotoxicity assay, breast PDX HBCx-3. The format is cell-based. As to the method:
as §3, §4, §5

In series [13] the target is T3, RSK2(Kin.Dom.1-N-terminal) (Homo sapiens, UniProt P51812).
T3 construct: RSK2(Kin.Dom.1-N-terminal); purchased Eurofins (KINOMEscan assay service); host or cells: E. coli BL21-derived (T7 phage) or HEK-293
Put plainly: KINOMEscan competition binding assay, RSK2(Kin.Dom.1-N-terminal).
Description: as §1

T1 sequence (Q9H093 whole entry): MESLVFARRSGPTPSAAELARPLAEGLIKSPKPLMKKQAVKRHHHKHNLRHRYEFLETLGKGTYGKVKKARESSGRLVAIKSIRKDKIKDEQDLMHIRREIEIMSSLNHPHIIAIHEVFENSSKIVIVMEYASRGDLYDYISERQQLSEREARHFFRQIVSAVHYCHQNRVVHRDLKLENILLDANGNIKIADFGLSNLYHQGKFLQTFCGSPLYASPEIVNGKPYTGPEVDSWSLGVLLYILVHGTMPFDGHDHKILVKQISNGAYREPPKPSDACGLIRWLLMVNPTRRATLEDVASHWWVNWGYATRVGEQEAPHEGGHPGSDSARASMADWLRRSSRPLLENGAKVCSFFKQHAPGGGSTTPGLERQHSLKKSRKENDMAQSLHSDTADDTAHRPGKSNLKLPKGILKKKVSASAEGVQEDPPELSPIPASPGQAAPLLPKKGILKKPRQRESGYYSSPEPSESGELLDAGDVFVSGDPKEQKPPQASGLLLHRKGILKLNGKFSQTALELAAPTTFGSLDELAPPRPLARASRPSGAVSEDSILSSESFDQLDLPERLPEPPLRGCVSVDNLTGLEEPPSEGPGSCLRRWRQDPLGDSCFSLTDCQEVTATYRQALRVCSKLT
T3 sequence (P51812 68-327 limits assumed): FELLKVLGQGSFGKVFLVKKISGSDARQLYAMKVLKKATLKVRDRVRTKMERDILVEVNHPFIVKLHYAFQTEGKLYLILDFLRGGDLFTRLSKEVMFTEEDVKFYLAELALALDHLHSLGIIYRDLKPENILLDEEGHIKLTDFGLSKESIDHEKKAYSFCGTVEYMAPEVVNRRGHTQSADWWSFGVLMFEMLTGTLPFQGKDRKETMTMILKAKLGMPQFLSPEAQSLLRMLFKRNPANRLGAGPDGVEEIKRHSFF

In general, Kd refers to the free concentration of one partner at which half of the binding sites on the other are occupied at equilibrium, for simple one-to-one binding. Usually IC50 stands for the concentration that inhibits the measured activity by half. The term MTD denotes the highest dose tested that stayed within the study's limit of toxicity. Take `COc1c(O)ccc2c(=O)cc(-c3ccc(CNCCCCNCCCN)cc3)oc12` [SND164]: the results for the Kd in series [1], in series [3] and in [13] were 0.9 µM, 0.43 µM and 1.4 µM, respectively. Besides, the IC50 in [2] amounted to 5.7 µM; in [4], 5 µM; in [5], 3.3 µM; in series [6] it was 2.7 µM; in [8], 5.7 µM; in series [9] it was 3.9 µM. Besides, the IC50 was < 10 µM in series [10] and 10 µM in series [12]. Further, in [7] (8-10 mg/kg i.p., daily or every other day over 8 days), the “tolerability at the highest dose administered” value is “well tolerated”. For the same molecule, the MTD at 8 days in series [7] (mouse, in vivo, ip, repeated i.p. administration, MTD not reached, read-out: maximum tolerated dose (MTD), estimated) is > 10 mg/kg. The body weight loss result in series [11] (U87MG xenograft mice) is given as “no significant body weight loss”. For the same molecule, in series [11] (U87MG xenograft mice), the “death during the study” value is listed as “no death”. For the same molecule, in series [11] (U87MG xenograft mice), the “tolerability of the treatment” value was “well tolerated”. In addition, in series [11] (glioblastoma U87MG CDX s.c. in nude mice, 10 injections, ***P < 0.001 vs vehicle), the “Optimum T/C, day 26” value was 54***.
